pEC50, pIC50: −log10 of the molar value. Read-outs that look alike come from different tables or passages of the source.
Key:
KRAS G12V = KRAS G12V (Homo sapiens (Human), UniProt P01116+P62937, G12V); assay: Ras-Raf (BRAF RBD) disruption / FRET / MOA assay, KRAS G12V; type: biochemical
Summary of the method: (§1)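 A 10-point, 3-fold dilution series topping at 30 μM final was incubated 3 h at 25° C with the Ras/cyclophilin A/BRAF RBD mixture.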

K-Ras G13C = K-Ras G13C (Homo sapiens (Human), UniProt P01116+P62937, G13C); assay: Ras-Raf (BRAF RBD) disruption / FRET / MOA assay, KRAS G13C; type: biochemical; conditions: KRAS G13C, Ras-Raf disruption/FRET/MOA assay
Sequence of K-Ras G13C (P01116-2 other isoform, or with tags, fused parts or gaps G13C): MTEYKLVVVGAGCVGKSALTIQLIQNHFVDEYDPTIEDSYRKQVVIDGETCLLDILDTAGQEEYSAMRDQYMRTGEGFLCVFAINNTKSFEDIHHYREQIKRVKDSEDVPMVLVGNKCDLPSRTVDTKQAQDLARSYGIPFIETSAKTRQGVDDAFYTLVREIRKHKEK
Sequence of K-Ras G13C (P62937 whole entry): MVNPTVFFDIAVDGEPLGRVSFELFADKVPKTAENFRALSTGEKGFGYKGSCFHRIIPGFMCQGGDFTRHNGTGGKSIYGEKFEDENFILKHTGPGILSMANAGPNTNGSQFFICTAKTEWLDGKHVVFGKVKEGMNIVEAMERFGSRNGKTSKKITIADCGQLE
Summary of the method: as §1

KRAS G12S = KRAS G12S (Homo sapiens (Human), UniProt P01116+P62937, G12S); assay: Ras-Raf (BRAF RBD) disruption / FRET / MOA assay, KRAS G12S; type: biochemical; conditions: class symbols
Sequence of KRAS G12S (P01116-2 other isoform, or with tags, fused parts or gaps G12S): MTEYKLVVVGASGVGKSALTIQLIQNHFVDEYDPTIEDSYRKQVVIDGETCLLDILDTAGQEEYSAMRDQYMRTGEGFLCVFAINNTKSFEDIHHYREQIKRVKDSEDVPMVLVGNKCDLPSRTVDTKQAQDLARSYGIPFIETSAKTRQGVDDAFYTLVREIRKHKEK
Sequence of KRAS G12S (P62937 whole entry): as the sequence (P62937 whole entry) above
Summary of the method: as §1

KRAS G13D = KRAS G13D (Homo sapiens (Human), UniProt P01116+P62937, G13D); assay: Ras-Raf (BRAF RBD) disruption / FRET / MOA assay, KRAS G13D; type: biochemical
Sequence of KRAS G13D (P01116-2 other isoform, or with tags, fused parts or gaps G13D): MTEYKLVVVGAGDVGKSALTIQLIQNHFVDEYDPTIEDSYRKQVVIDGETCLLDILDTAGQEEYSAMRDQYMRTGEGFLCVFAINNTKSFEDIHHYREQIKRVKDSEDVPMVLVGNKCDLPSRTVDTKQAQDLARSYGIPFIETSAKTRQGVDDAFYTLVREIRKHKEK
Sequence of KRAS G13D (P62937 whole entry): as the sequence (P62937 whole entry) above
Summary of the method: as §1

K-Ras G12C = K-Ras G12C (Homo sapiens (Human), UniProt P01116+P62937, G12C); assay: Ras-Raf (BRAF RBD) disruption / FRET / MOA assay, KRAS G12C; type: biochemical; conditions: KRAS G12C, Ras-Raf disruption/FRET/MOA assay
Sequence of K-Ras G12C (P01116-2 other isoform, or with tags, fused parts or gaps G12C): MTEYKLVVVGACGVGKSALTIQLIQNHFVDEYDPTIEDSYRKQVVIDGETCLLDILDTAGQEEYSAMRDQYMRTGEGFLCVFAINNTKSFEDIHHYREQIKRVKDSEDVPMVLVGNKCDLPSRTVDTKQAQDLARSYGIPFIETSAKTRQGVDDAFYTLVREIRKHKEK
Sequence of K-Ras G12C (P62937 whole entry): as the sequence (P62937 whole entry) above
Summary of the method: as §1

[1] = test system: NCI-H358 cells (K-Ras G12C); assay: Potency assay: pERK in NCI-H358 cells; type: cell-based, human; conditions: Homo sapiens, NCI-H358; H358 KRAS G12C; read-out: pERK EC50
Summary of the method: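 Inhibition of cellular pERK after a 4 h treatment, detected by AlphaLISA or In-Cell Western. IC50 from a four-parameter concentration-response fit.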

NRAS G12C = NRAS G12C (Homo sapiens (Human), UniProt P01111+P62937, G12C); assay: Ras-Raf (BRAF RBD) disruption / FRET / MOA assay, NRAS G12C; type: biochemical
Sequence of NRAS G12C (P01111 whole entry G12C): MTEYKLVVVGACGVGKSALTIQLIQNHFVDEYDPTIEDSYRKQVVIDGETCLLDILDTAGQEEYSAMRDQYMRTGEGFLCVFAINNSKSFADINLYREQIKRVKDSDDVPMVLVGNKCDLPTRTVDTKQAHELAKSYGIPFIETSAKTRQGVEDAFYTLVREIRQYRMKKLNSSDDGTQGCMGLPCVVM
Sequence of NRAS G12C (P62937 whole entry): as the sequence (P62937 whole entry) above
Summary of the method: as §1

NCI-H358 (K-Ras G12C) = assay: CellTiter-Glo cell viability assay, NCI-H358; type: cell-based, human; conditions: Homo sapiens, NCI-H358, 120 h, NCI-H358, 5-day treatment; class symbols; read-out: Additional H358 Cell Viability assay data (K-Ras G12C, IC50)
Summary of the method: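 Steps: compound dispensed into wells holding cells; incubation to day 5; ~30 min room-temperature equilibration; luminescence read; sample signal divided by mean DMSO signal, times 100; four-parameter logistic curve fit.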

KRAS WT = KRAS WT (Homo sapiens (Human), UniProt P01116+P62937); assay: Ras-Raf (BRAF RBD) disruption / FRET / MOA assay, KRAS WT; type: biochemical
Sequence of KRAS WT (P01116-2 other isoform, or with tags, fused parts or gaps): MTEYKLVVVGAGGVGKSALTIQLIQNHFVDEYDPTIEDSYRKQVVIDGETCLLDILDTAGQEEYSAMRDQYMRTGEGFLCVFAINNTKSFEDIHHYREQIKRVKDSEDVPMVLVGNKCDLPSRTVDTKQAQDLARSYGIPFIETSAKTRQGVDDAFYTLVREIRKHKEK
Sequence of KRAS WT (P62937 whole entry): as the sequence (P62937 whole entry) above
Summary of the method: as §1

KRAS G12D = KRAS G12D (Homo sapiens (Human), UniProt P01116+P62937, G12D); assay: Ras-Raf (BRAF RBD) disruption / FRET / MOA assay, KRAS G12D; type: biochemical; conditions: class symbols
Sequence of KRAS G12D (P01116-2 other isoform, or with tags, fused parts or gaps G12D): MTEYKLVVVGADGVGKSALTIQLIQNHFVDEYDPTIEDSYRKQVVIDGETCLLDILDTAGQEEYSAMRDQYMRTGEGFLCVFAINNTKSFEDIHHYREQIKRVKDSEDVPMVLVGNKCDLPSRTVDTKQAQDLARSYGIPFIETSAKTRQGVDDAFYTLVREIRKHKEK
Sequence of KRAS G12D (P62937 whole entry): as the sequence (P62937 whole entry) above
Summary of the method: as §1

[2] = read-out: IC50* KRAS G12V FRET data
[3] = read-out: IC50* KRAS G13C FRET data
[4] = Ras-Raf disruption/FRET/MOA assay, read-out: KRAS G12S FRET data IC50
[5] = read-out: IC50* KRAS G13D FRET data
[6] = read-out: IC50* KRAS G12C FRET data
[7] = read-out: IC50* NRAS G12C FRET data
[8] = read-out: IC50* KRAS WT FRET data
[9] = Ras-Raf disruption/FRET/MOA assay, read-out: KRAS G12D FRET data IC50

Sequence of KRAS G12V (P01116-2 other isoform, or with tags, fused parts or gaps G12V): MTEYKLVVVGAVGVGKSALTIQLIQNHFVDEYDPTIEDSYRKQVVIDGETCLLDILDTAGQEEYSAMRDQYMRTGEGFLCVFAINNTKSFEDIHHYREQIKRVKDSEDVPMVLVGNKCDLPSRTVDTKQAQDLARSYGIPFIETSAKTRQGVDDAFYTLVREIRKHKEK
Sequence of KRAS G12V (P62937 whole entry): as the sequence (P62937 whole entry) above

| Structure (SMILES) | pIC50 (KRAS G12V; [2]) | pIC50 (K-Ras G13C; [3]) | pIC50 (KRAS G12S; [4]) | pIC50 (KRAS G13D; [5]) | pIC50 (K-Ras G12C; [6]) | pEC50 [1] | pIC50 (NRAS G12C; [7]) | pIC50 (NCI-H358 (K-Ras G12C)) | pIC50 (KRAS WT; [8]) | pIC50 (KRAS G12D; [9]) | pIC50 (KRAS G12V; IC50* KRAS G12V FRET data) | pIC50 (K-Ras G13C; IC50* KRAS G13C FRET data) | pIC50 (KRAS G12S; KRAS G12S FRET data IC50, Ras-Raf disruption/FRET/MOA assay) | pIC50 (KRAS G13D; IC50* KRAS G13D FRET data) | pIC50 (K-Ras G12C; IC50* KRAS G12C FRET data) | pIC50 (NRAS G12C; IC50* NRAS G12C FRET data) | pIC50 (KRAS WT; IC50* KRAS WT FRET data) | pIC50 (KRAS G12D; KRAS G12D FRET data IC50, Ras-Raf disruption/FRET/MOA assay) |
| --- | --- | --- | --- | --- | --- | --- | --- | --- | --- | --- | --- | --- | --- | --- | --- | --- | --- | --- |
| CC#CC(=O)N1CC[C@H](C(=O)N(C)[C@H](C(=O)N[C@H]2Cc3nc(ns3)-c3ccc4c(c3)c(c(-c3cccnc3[C@H](C)OC)n4CC)CC(C)(C)COC(=O)[C@@H]3CCCN(N3)C2=O)C(C)C)C1 (atropisomer, axis not shown) [Example A289] | 5.00 to 6.00 | 5.00 to 6.00 | < 5.00 | < 5.00 | 5.00 to 6.00 | > 5.30 | 5.00 to 6.00 | 6.00 to 7.00 | < 5.00 | < 5.00 | – | – | – | – | – | – | – | – |
| CCn1c(-c2cccnc2[C@H](C)OC)c2c3cc(ccc31)-c1csc(n1)C[C@H](NC(=O)[C@H](C(C)C)N(C)C(=O)[C@H]1CCN(C(=O)C#CC(C)(C)N(C)C)C1)C(=O)N1CCC[C@H](N1)C(=O)OCC(C)(C)C2 (atropisomer, axis not shown) [Example A291] | 5.00 to 6.00 | 5.00 to 6.00 | 5.00 to 6.00 | < 5.00 | > 8.00 | > 5.30 | 7.00 to 8.00 | > 8.00 | 5.00 to 6.00 | < 5.00 | – | – | – | – | – | – | – | – |
| C=CC(=O)N1CCC2(CC1)CCN([C@H](C(=O)N[C@H]1Cc3cc(O)cc(c3)-c3ccc4c(c3)c(c(-c3cccnc3[C@H](C)OC)n4CC)CC(C)(C)COC(=O)[C@@H]3CCCN(N3)C1=O)C(C)C)C2=O (atropisomer, axis not shown) [Example A296] | 6.00 to 7.00 | 7.00 to 8.00 | 6.00 to 7.00 | 7.00 to 8.00 | 7.00 to 8.00 | > 5.30 | 7.00 to 8.00 | > 8.00 | 7.00 to 8.00 | 5.00 to 6.00 | – | – | – | – | – | – | – | – |

The next lines start with the values.

| pIC50 (KRAS G12V; [2]) | pIC50 (K-Ras G13C; [3]) | pIC50 (KRAS G12S; [4]) | pIC50 (KRAS G13D; [5]) | pIC50 (K-Ras G12C; [6]) | pEC50 [1] | pIC50 (NRAS G12C; [7]) | pIC50 (NCI-H358 (K-Ras G12C)) | pIC50 (KRAS WT; [8]) | pIC50 (KRAS G12D; [9]) | pIC50 (KRAS G12V; IC50* KRAS G12V FRET data) | pIC50 (K-Ras G13C; IC50* KRAS G13C FRET data) | pIC50 (KRAS G12S; KRAS G12S FRET data IC50, Ras-Raf disruption/FRET/MOA assay) | pIC50 (KRAS G13D; IC50* KRAS G13D FRET data) | pIC50 (K-Ras G12C; IC50* KRAS G12C FRET data) | pIC50 (NRAS G12C; IC50* NRAS G12C FRET data) | pIC50 (KRAS WT; IC50* KRAS WT FRET data) | pIC50 (KRAS G12D; KRAS G12D FRET data IC50, Ras-Raf disruption/FRET/MOA assay) | Structure (SMILES) |
| --- | --- | --- | --- | --- | --- | --- | --- | --- | --- | --- | --- | --- | --- | --- | --- | --- | --- | --- |
| 7.00 to 8.00 | > 8.00 | 7.00 to 8.00 | 6.00 to 7.00 | > 8.00 | > 5.30 | > 8.00 | > 8.00 | 6.00 to 7.00 | 6.00 to 7.00 | – | – | – | – | – | – | – | – | CCn1c(-c2cccnc2[C@H](C)OC)c2c3cc(ccc31)-c1cc(O)cc(c1)C[C@H](NC(=O)[C@H](C(C)C)N(C)C(=O)[C@H]1CCN(C(=O)C#CC(C)(C)N(C)C)C1)C(=O)N1CCC[C@H](N1)C(=O)OCC(C)(C)C2 (atropisomer, axis not shown) [Example A292] |
| – | – | – | – | – | > 5.30 | – | 7.00 to 8.00 | – | – | 7.00 to 8.00 | 7.00 to 8.00 | 6.00 to 7.00 | 6.00 to 7.00 | 7.00 to 8.00 | 7.00 to 8.00 | 6.00 to 7.00 | 5.00 to 6.00 | CCn1c(-c2cccnc2[C@H](C)OC)c2c3cc(ccc31)-c1cc(O)cc(c1)C[C@H](NC(=O)[C@H](C(C)C)N(C)C(=O)[C@H]1CCN(S(=O)(=O)C=C(C)C)C1)C(=O)N1CCC[C@H](N1)C(=O)OCC(C)(C)C2 (atropisomer, axis not shown) [Example A305] |
| 6.00 to 7.00 | 7.00 to 8.00 | 6.00 to 7.00 | 6.00 to 7.00 | 6.00 to 7.00 | > 5.30 | 6.00 to 7.00 | 7.00 to 8.00 | 6.00 to 7.00 | 5.00 to 6.00 | – | – | – | – | – | – | – | – | C/C=C(\C)S(=O)(=O)N1CC[C@H](C(=O)N(C)[C@H](C(=O)N[C@H]2Cc3cc(O)cc(c3)-c3ccc4c(c3)c(c(-c3cccnc3[C@H](C)OC)n4CC)CC(C)(C)COC(=O)[C@@H]3CCCN(N3)C2=O)C(C)C)C1 (atropisomer, axis not shown) [Example A306] |
| 5.00 to 6.00 | 5.00 to 6.00 | < 5.00 | < 5.00 | 5.00 to 6.00 | > 5.30 | 5.00 to 6.00 | < 6.00 | < 5.00 | < 5.00 | – | – | – | – | – | – | – | – | CCn1c(-c2cccnc2[C@H](C)OC)c2c3cc(ccc31)-c1cccc(c1)C[C@H](NC(=O)[C@H](C(C)C)N(C)C(=O)[C@H]1CCN(S(=O)(=O)C=C(C)C)C1)C(=O)N1CCC[C@H](N1)C(=O)OCC(C)(C)C2 (atropisomer, axis not shown) [Example A307] |
